According to PMC10818600, “In Silico Design, Synthesis, and Evaluation of Novel Enantiopure Isoxazolidines as Promising Dual Inhibitors of α-Amylase and α-Glucosidase” (Molecules, 2024):
Values joined by “and” are separate entries in the source; they are usually repeats but may differ in a detail not shown here. Equal entries are not always repeated.

Legend:
Format in all cases: biochemical
[1] = target: human lysosomal acid-α-glucosidase (Homo sapiens, UniProt P10253); experiment: α-glucosidase inhibition assay; details: for IC50: mean ± standard error, triplicates
Protocol: (§1) The inhibitory potential of the synthesized analogs against human pancreatic α-amylase and human lysosomal acid-α-glucosidase enzymes was carried out using the same protocol as described previously with slight modification. […] The percent of inhibition for both enzymes was calculated via the following formula: % inhibition=Abs(blank)−Abs(test compoud)/Abs (blank)×100
(§2) The results were expressed as IC50 (μM), and all the experiments were carried out in triplicates.

[2] = target: T1, human pancreatic α-amylase (Homo sapiens, UniProt P04746); experiment: α-amylase inhibition assay; details: for IC50: mean ± standard error, triplicates
T1 sequence (P04746 16-511): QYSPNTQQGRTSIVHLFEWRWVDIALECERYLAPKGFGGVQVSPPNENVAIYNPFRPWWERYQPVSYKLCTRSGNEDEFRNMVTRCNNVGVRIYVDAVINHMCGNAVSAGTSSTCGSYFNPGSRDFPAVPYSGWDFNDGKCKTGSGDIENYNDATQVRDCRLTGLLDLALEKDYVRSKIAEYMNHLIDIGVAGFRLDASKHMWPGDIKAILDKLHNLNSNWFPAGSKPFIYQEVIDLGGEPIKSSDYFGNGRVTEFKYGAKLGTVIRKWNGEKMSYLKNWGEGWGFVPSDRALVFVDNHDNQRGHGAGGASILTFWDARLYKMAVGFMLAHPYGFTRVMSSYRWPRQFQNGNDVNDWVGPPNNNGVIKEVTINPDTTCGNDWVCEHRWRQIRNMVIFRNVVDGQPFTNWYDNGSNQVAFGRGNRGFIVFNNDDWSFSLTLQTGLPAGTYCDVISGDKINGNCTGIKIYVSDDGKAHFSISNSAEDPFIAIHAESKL
Protocol: as §1, §2

[3] = target: α-glucosidase (Homo sapiens, UniProt P10253); experiment: enzyme kinetic study, mode of α-glucosidase inhibition (Lineweaver–Burk)
Protocol: (§3) The kinetic studies were carried out based on the above IC50 values. […] A volume of 20 μL was incubated for 15 min at 30 °C using varying concentrations of the inhibitor 5d against α-amylase (0, 5, 25, and 35 μM) and α-glucosidase ([…]) with varying concentrations of inhibitor substrate (starch) in the range 0.3 to 8 mM, whereas concentrations for the inhibitor substrate (p-nitrophenyl-α-D-glucopyranoside, PNPg) were in the range 0.1–1.3 mM, respectively. This was conducted according to the same protocol as previously described, with slight modifications. The type of enzyme inhibition was assessed by preparing Lineweaver–Burk plots of the inverse of the velocities (1/V) versus the inverse of the substrate’s concentration 1/[S] mM^−1, and the change in absorbance was measured spectrophotometrically at 405 nm. The constant of inhibition, Ki, was determined through the secondary plot of the slope versus the inhibitor concentration.

[4] = target: T2, α-amylase (Homo sapiens, UniProt P04746); experiment: enzyme kinetic study, mode of α-amylase inhibition (Lineweaver–Burk)
T2 sequence (P04746 16-511): T1 sequence (P04746 16-511)
Protocol: as §3

[5] = ratio of IC50 values vs acarbose

Row | Compound | IC50 [1] | IC50 [2] | mode of α-glucosidase inhibition ([3]; Lineweaver–Burk plot: Km increases, Vmax constant) | Ki ([3]; estimated from slope vs inhibitor concentration, substrate PNPg, read-out: inhibition constant Ki, α-glucosidase) | mode of α-amylase inhibition ([4]; Lineweaver–Burk plot: Vmax unchanged, Km increased) | Ki ([4]; estimated from secondary re-plot of Lineweaver–Burk plots, substrate starch, read-out: inhibition constant Ki, α-amylase) | α-glucosidase inhibitory activity, fold higher than that of acarbose [1, 5] | α-amylase inhibitory activity, fold higher than that of acarbose [2, 5]
1 | Cc1cccc(C[C@@H]2C[C@@H]3C(=O)N(C)C4(C[C@H](C)CC[C@H]4C(C)C)N3O2)c1OCC(=O)NNC(=O)Nc1ccc(Cl)c(C(F)(F)F)c1 (stereo partly drawn) [5b, N-(3-trifluoromethyl-4-chlorophenyl)-2-(2-(2-(((2S,2′R,3a’R,5R)-2-isopropyl-5,5′-dimethyl-4′-oxotetrahydro-2′H-spiro[cyclohexane-1,6′-imidazo[1,5-b]isoxazol]-2′-yl)methyl)-6-methylphenoxy)acetyl)hydrazine-1-carboxamide] | 118.9 ± 0.325 µM | 67.4 ± 0.202 µM | – | – | – | – | – | –
2 | Cc1cccc(C[C@@H]2C[C@@H]3C(=O)N(C)C4(C[C@H](C)CC[C@H]4C(C)C)N3O2)c1OCC(=O)NNC(=O)Nc1cccc2ccccc12 (stereo partly drawn) [5d, 2-(2-(2-(((2S,2′R,3a’R,5R)-2-isopropyl-5,5′-dimethyl-4′-oxotetrahydro-2′H-spiro[cyclohexane-1,6′-imidazo[1,5-b]isoxazol]-2′-yl)methyl)-6-methylphenoxy)acetyl)-N-(naphthalen-1-yl)hydrazine-1-carboxamide] | 94.33 ± 0.282 µM | 53.03 ± 0.106 µM | competitive | 89.5 µM | competitive | 31.9 µM | 8.3 fold and 8.27 fold | 5.6 fold and 5.59 fold
3 | COc1cc(C[C@@H]2C[C@@H]3C(=O)N(C)C4(C[C@H](C)CC[C@H]4C(C)C)N3O2)ccc1OCC(=O)NNC(=O)Nc1ccc(F)cc1 (stereo partly drawn) [5g, N-(4-fluorophenyl)-2-(2-(4-(((2S,2′R,3a’R,5R)-2-isopropyl-5,5′-dimethyl-4′-oxotetrahydro-2′H-spiro [cyclohexane-1,6′-imidazo[1,5-b]isoxazol]-2′-yl)methyl)-2-methoxyphenoxy)acetyl)hydrazine-1-carboxamide] | 170.8 ± 0.358 µM | 134.8 ± 0.411 µM | – | – | – | – | – | –
4 | COc1cc(C[C@@H]2C[C@@H]3C(=O)N(C)C4(C[C@H](C)CC[C@H]4C(C)C)N3O2)ccc1OCC(=O)NNC(=O)Nc1ccc(Br)cc1 (stereo partly drawn) [5f, N-(4-bromophenyl)-2-(2-(4-(((2S,2′R, 3a’R, 5R)-2-isopropyl-5,5′-dimethyl-4′-oxotetrahydro-2′H-spiro[cyclohexane-1,6′-imidazo[1,5-b]isoxazol]-2′-yl)methyl)-2-methoxyphenoxy)acetyl)hydrazine-1-carboxamide] | 204.6 ± 0.41 µM | 183.8 ± 0.498 µM | – | – | – | – | – | –

The remaining molecules from weak to strong by IC50 [1], led by results:

Row | IC50 [1] | IC50 [2] | Compound | mode of α-glucosidase inhibition ([3]; Lineweaver–Burk plot: Km increases, Vmax constant) | Ki ([3]; estimated from slope vs inhibitor concentration, substrate PNPg, read-out: inhibition constant Ki, α-glucosidase) | mode of α-amylase inhibition ([4]; Lineweaver–Burk plot: Vmax unchanged, Km increased) | Ki ([4]; estimated from secondary re-plot of Lineweaver–Burk plots, substrate starch, read-out: inhibition constant Ki, α-amylase) | α-glucosidase inhibitory activity, fold higher than that of acarbose [1, 5] | α-amylase inhibitory activity, fold higher than that of acarbose [2, 5]
5 | 258.7 ± 0.521 µM | 232.8 ± 0.517 µM | Cc1cccc(C[C@@H]2C[C@@H]3C(=O)N(C)C4(C[C@H](C)CC[C@H]4C(C)C)N3O2)c1OCC(=O)NNC(=O)Nc1ccc(Cl)cc1 (stereo partly drawn) [5e, N-(4-chlorophenyl)-2-(2-(2-(((2S,2′R,3a’R,5R)-2-isopropyl-5,5′-dimethyl-4′-oxotetrahydro-2′H-spiro[cyclohexane-1,6′-imidazo[1,5-b]isoxazol]-2′-yl)methyl)-6-methylphenoxy)acetyl)hydrazine-1-carboxamide] | – | – | – | – | – | –
6 | 152.3 ± 0.367 µM | 120.3 ± 0.306 µM | Cc1cccc(C[C@@H]2C[C@@H]3C(=O)N(C)C4(C[C@H](C)CC[C@H]4C(C)C)N3O2)c1OCC(=O)NNC(=O)Nc1ccc(F)cc1 (stereo partly drawn) [5a, N-(4-fluorophenyl)-2-(2-(2-(((2S,2′R,3a’R,5R)-2-isopropyl-5,5′-dimethyl-4′-oxotetrahydro-2′H-spiro[cyclohexane-1,6′-imidazo[1,5-b]isoxazol]-2′-yl)methyl)-6-methylphenoxy)acetyl)hydrazine-1-carboxamide] | – | – | – | – | – | –
7 | 120.9 ± 0.333 µM | 92.28 ± 0.276 µM | Cc1cccc(C[C@@H]2C[C@@H]3C(=O)N(C)C4(C[C@H](C)CC[C@H]4C(C)C)N3O2)c1OCC(=O)NNC(=O)Nc1cccc(Cl)c1 (stereo partly drawn) [5c, N-(3-chlorophenyl)-2-(2-(2-(((2S,2′R,3a’R,5R)-2-isopropyl-5,5′-dimethyl-4′-oxotetrahydro-2′H-spiro[cyclohexane-1,6′-imidazo[1,5-b]isoxazol]-2′-yl)methyl)-6-methylphenoxy)acetyl)hydrazine-1-carboxamide] | – | – | – | – | – | –
